This is an account of results in EP3748362A1, “IN VITRO METHOD FOR DETECTING RENAL DISEASE” (Fundacion Instituto De Investigacion Sanitaria Fundacion …, priority 2019, dated 2020).

In one assay the test system is RelB or p52/NF-κB2. Description: p52 and RelB DNA binding activity in PBMCs from ESRD patients on hemodialysis. Particulars: PBMCs from paricalcitol-treated ESRD patients; RelB or p52 DNA binding activities. Format: in vivo, human. The procedure: Intracellular protein and mRNA levels were measured in PBMCs from ESRD patients on hemodialysis. Inclusion criteria were as follows: age >45 years; male sex; informed consent; and absence of active inflammatory, infectious, or malignant diseases at the initiation or during the study. This study was approved by the IIS-Fundación Jiménez Diaz Ethics Committee. Patients were enrolled after providing written informed consent. PBMCs were separated from whole blood samples (30 ml into EDTA tubes) by a density gradient centrifugation method using Ficoll density gradient centrifugation. In total, 50x10^6 of PBMCs were obtained from 30 ml of whole blood and 6x10^6 PBMCs were used to isolate protein, RNA and nuclear/cytosolic protein levels using the NE-PER Reagent (Pierce) following the manufacturer's instructions.
Nuclear and cytoplasmic fractions were separated from renal tissues using the NE-PER Reagent (Pierce) following the manufacturer's instructions. In renal nuclear extracts, NF-κB2 and RelB DNA binding activity was measured by its binding to an oligonucleotide containing the NF-κB consensus site using a TransAM NF-κB Family kit (Active Motif) with an antibody that only recognizes active NF-κB2 p52 and RelB.

Another assay concerns TRAF3. In words: TRAF3 western blot in TWEAK-stimulated PBMCs from healthy donors. Format: cell-based, Human. As to conditions: paricalcitol 15 umol/L 48 hours before TWEAK 100 ng/ml for 24 hours. On the technique in general: Immunoblotting shows a protein as a band on a membrane.
Another assay deals with NF-κB2. Description: Non-canonical NF-κB2 activation and NF-κB2 targets in obstructed kidneys (UUO) in mice. Format: in vivo. Particulars: paricalcitol 750 ng/kg/day. The protocol: All animal procedures were performed according to the guidelines of animal research in the European Community and with prior approval by the Ethics Committee of the Health Research of the IIS-Fundacion Jiménez Díaz. For in vivo studies, mice received a daily intraperitoneal injection of the VDRA Paricalcitol starting 48 hours prior to induction of kidney damage.
At the time of sacrifice, animals were anesthetized with 5 mg/kg xylazine (Rompun, Bayer AG) and 35 mg/kg ketamine (Ketolar, Pfizer) and the kidneys perfused in situ with cold saline before removal. Then, kidney portions were fixed in formalin buffer for immunohistochemistry studies or immediately frozen in liquid nitrogen for gene and protein studies.
Unilateral ureteral obstruction (UUO) was established in male C57BL/6 mice, under isoflurane-induced anesthesia. The left ureter was ligated with silk (5/0) at two locations and cut between ligatures to prevent urinary tract infection (obstructed kidney).(Ucero et al 2014; Rodrigues-Díez et al 2013) Two groups were studied; untreated or paricalcitol treated (750 ng/kg/day, i.p., Abbot), n=6-8 mice per group, starting 48 hours before surgery. Studies compared both kidneys (contralateral vs. obstructed) in each mouse.
Paraffin-embedded kidney sections (3 µm) were stained using conventional methods. […] For each sample (processed by duplicate in a blinded manner), the average value was obtained from the analysis of 4 fields (20X objective) as density/mm2 or percentage stained area vs total analyzed area. Data are expressed as fold increase over control mice, as mean ± SEM of 8-10 animals per group. […]
For western blot, cell (25 µg/lane) and kidney (100-150 µg/lane) protein extracts were separated on 6%-12% polyacrylamide-SDS gels under reducing conditions. […] Autoradiographs were scanned using the Gel Doc™ EZ imager and analyzed with the Image Lab 3.0 software (BioRad). […]

For the compound `C[C@H](/C=C/[C@H](C)C(C)(C)O)[C@H]1CC[C@H]2/C(=C/C=C3C[C@@H](O)C[C@H](O)C3)CCC[C@]12C` [paricalcitol], the NF-κB2 pathway activation result in the assay on RelB or p52/NF-κB2 is reported as “inhibited”. For the same compound, the “TWEAK-induced TRAF3 degradation” value in the assay with TRAF3 is “inhibited”. Further, in the assay on NF-κB2, the “increased RelB levels and its nuclear localization” value is listed as “prevented”; the “p100/p52 processing, and p52 nuclear translocation and DNA binding activity” value is on record as “blocked”. In addition, in the assay with NF-κB2 (real time PCR), the “increased expression of specific NF-κB2-regulated chemokines, including CCL21A and CCL19” value is on record as “prevented”.
